Columns and labels:
YANK3 = biological target: T1, YANK3 (Homo sapiens, UniProt Q86UX6); assay: In vitro kinase assay: inhibition of YANK3 phosphorylation (IP kinase, [γ-32P]ATP, autoradiography); format: biochemical; set-up: dose or concentration left out as unconfirmed; conditions: MCF7 cells treated with each compound at 37° C. for 1 h; anti-HA IP, kinase reaction 30° C. 30 min
T1 construct: expressed in transfected cells; host or cells: MCF7 cells, Lipofectamine transfection, anti-HA immunoprecipitation
Description: Transduction was performed to overexpress YANK3-HA and YB1-HA genes in cells. Lipofectamine reagent (Invitrogen) was used for gene introgression. When cells were grown to a confluency of 60% in a culture dish, human YANK3-HA and YB1-HA genes were introduced into MCF7 cells. After 48 h, the gene-transfected cells were used for experiments. All cultured cells were harvested, lysed in a lysis buffer (1×RIPA buffer 1 mL, 1 mM PMSF, 1 mg/mL aprotinin, 1 mg/mL leupeptin, 2 mM DTT) for 30 min, and centrifuged at 15,000 rpm and 4° C. for 30 min. The supernatant was collected and its total protein content was quantified by the Bradford method. After YB1-HA gene introgression, the MCF7 cells were treated with each compound […] at 37° C. for 1 h. 1 μg of anti-HA antibody was cultured with […] of protein at 4° C. for 15 h, 20 μL of protein A/G-Sepharose was added thereto, followed by culture for another 2 h. The culture was centrifuged to precipitate the protein A/G-Sepharose, washed with IP kinase buffer (50 mM HEPES, pH 7.5, 10 mM MgCl2, 1 mM dithiothreitol, 2.5 mM EGTA, 1 mM NaF, 0.1 mM Na3VO4), and sufficiently mixed with 20 μL of IP kinase buffer. The kinase reaction was initiated by the addition of […] of [γ-^32P]ATP to 40 μL of IP kinase buffer. The reaction was allowed to proceed at 30° C. for 30 min. After addition of 5 μL of 2×SDS sample buffer, the reaction was quenched by boiling for 5 min, which was confirmed by SDS-PAGE electrophoresis and autoradiography.

[1] = system: YANK-expressed cells (STK32C/MCF7 cell); assay: Inhibition of cell proliferation (MCF7, STK32C/MCF7 cells, 96-well, read at 450 nm); format: cell-based; conditions: 24 h after addition of compound; FIGS. 3 to 6
Description: MCF7, STK32C/MCF7 cell (1×10^4/well) culture was plated in each well of a 96-well plate until it reached a final volume of 100 μl. After 24 h, the compounds at given concentrations were added. 24 h after the addition, 10 μl of an analytical reagent was plated in each well without bubbling. The reaction was allowed to proceed under basic culture conditions for 30 min to 1 h and the inhibitions of cell proliferation were measured at 450 nm.
FIGS. 3 to 6 show concentration-dependent inhibitions of proliferation of the YANK-expressed cells by treatment with the phenol derivatives of Formulae 7, 9, 13, and 32 (corresponding to Compound 34 in FIG. 2), respectively.

T1 sequence (Q86UX6 whole entry): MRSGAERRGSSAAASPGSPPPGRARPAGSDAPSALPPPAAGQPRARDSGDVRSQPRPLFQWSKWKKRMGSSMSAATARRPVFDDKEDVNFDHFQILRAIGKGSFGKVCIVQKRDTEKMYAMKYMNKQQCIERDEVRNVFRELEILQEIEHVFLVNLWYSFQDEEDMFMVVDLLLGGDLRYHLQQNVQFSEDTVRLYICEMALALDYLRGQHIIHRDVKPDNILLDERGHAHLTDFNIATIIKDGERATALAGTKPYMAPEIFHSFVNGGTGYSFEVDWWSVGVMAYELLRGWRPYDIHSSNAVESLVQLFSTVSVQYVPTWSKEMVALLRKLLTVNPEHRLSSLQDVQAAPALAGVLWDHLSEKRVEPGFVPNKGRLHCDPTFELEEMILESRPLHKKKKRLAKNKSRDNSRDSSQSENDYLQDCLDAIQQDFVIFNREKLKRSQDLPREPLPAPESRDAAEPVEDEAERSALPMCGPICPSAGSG

Row | SMILES | Inhibition, % (inhibitions (%) of YANK3 phosphorylation) (YANK3) | concentration-dependent inhibition of proliferation of YANK-expressed cells [1]
1 | Oc1ccc(-c2ccc(Cl)cc2)cc1-c1cc2cc(F)ccc2[nH]1 [Formula 13] | 93% | inhibited the proliferation of the YANK-expressed cells with high efficacy with increasing concentration
2 | N#Cc1ccc2[nH]c(-c3cc(Br)ccc3O)cc2c1 [Formula 9, 2-(5-Bromo-2-hydroxyphenyl)-1H-indole-5-carbonitrile] | 144% | inhibited the proliferation of the YANK-expressed cells with high efficacy with increasing concentration
3 | N=C(N)c1ccc2[nH]c(-c3cc(-c4ccc(Cl)cc4)ccc3O)cc2c1 [Compound 32, 2-(4′-Chloro-4-hydroxybiphenyl-3-yl)-1H-indole-5-carboximidamide] | 65% | inhibited the proliferation of the YANK-expressed cells with high efficacy with increasing concentration
4 | N=C(N)c1ccc2[nH]c(-c3cc(-c4cccs4)ccc3O)cc2c1 [Compound 33, 2-(2-Hydroxy-5-(thiophen-2-yl)phenyl)-1H-indole-5-carboximidamide] | 30% | 
5 | COc1ccc(-c2ccc(O)c(-c3cc4ccccc4[nH]3)c2)cc1 [Formula 11, 3-(1H-Indol-2-yl)-4′-methoxybiphenyl-4-ol] | 163% | 
6 | Oc1ccc(-c2ccc(Cl)cc2)cc1-c1cc2cc(Cl)ccc2[nH]1 [Formula 16, 4′-Chloro-3-(5-chloro-1H-indol-2-yl)biphenyl-4-ol] | 125% | 
7 | Oc1ccc(Br)cc1-c1cc2cc(F)ccc2[nH]1 [Formula 7, 4-Bromo-2-(5-fluoro-1H-indol-2-yl)phenol] | 74% | inhibited the proliferation of the YANK-expressed cells with high efficacy with increasing concentration

Source: patent US10155753B2, “4-substituted-2-(5-substituted-1H-indol-2-yl)phenol derivatives, methods for preparing the phenol derivatives and pharmaceutical compositions for inhibiting cell proliferation and migration including the phenol derivatives” (KOREA UNIVERSITY RESEARCH AND BUSINESS FOUNDATION, priority 2015, dated 2018)
